This note sets out measurements from US20250304576A1 (Cancer Research Technology Limited, priority 2022, published 2025).

Bounds are passed on as bounds.

Assay [1] addresses T1, Recombinant IKKα (Homo sapiens, UniProt O15111).
T1 construct: purchased Millipore, Dundee, UK
T1 sequence (O15111 1-745): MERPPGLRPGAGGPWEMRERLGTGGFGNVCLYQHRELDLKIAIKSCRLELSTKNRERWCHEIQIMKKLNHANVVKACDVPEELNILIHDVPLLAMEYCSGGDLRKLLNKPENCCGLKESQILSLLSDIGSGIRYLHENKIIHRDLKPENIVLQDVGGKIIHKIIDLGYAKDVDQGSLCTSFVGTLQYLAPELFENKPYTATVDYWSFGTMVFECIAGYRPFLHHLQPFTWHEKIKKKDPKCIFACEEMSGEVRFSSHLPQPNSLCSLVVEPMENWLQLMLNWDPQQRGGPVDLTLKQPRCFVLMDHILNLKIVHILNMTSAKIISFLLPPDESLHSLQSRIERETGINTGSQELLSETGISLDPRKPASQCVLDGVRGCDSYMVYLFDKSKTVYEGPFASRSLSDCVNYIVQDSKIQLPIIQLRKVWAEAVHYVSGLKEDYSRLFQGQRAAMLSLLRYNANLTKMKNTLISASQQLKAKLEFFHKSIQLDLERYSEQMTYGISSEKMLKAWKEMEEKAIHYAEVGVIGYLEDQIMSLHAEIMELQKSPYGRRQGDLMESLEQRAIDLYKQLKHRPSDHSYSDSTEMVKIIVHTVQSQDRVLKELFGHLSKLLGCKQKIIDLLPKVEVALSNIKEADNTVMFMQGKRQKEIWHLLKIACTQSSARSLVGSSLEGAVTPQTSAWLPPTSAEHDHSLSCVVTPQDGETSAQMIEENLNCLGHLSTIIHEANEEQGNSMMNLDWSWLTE
Put plainly: DELFIA IKKα kinase assay (apparent Ki, Cheng-Prusoff). The assay is classed as biochemical. Conditions: non-italicised figure: DELFIA assay. The procedure, abridged:
(§1)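 Recombinant IKKα or IKKβ (37 nM) with 0.375 μM biotinylated IκB-α (Ser32) peptide and 40 μM ATP in 40 mM Tris-HCl pH 7.5, 20 mM MgCl2, 60 min at 30° C. Phospho-substrate captured on streptavidin and detected by anti-phospho-IκB-α plus europium anti-mouse IgG time-resolved fluorescence; apparent Ki via Cheng-Prusoff.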

The target of assay [2] is T2, Recombinant IKKβ (Homo sapiens, UniProt O14920).
T2 construct: purchased Millipore, Dundee, UK
T2 sequence (O14920 1-756): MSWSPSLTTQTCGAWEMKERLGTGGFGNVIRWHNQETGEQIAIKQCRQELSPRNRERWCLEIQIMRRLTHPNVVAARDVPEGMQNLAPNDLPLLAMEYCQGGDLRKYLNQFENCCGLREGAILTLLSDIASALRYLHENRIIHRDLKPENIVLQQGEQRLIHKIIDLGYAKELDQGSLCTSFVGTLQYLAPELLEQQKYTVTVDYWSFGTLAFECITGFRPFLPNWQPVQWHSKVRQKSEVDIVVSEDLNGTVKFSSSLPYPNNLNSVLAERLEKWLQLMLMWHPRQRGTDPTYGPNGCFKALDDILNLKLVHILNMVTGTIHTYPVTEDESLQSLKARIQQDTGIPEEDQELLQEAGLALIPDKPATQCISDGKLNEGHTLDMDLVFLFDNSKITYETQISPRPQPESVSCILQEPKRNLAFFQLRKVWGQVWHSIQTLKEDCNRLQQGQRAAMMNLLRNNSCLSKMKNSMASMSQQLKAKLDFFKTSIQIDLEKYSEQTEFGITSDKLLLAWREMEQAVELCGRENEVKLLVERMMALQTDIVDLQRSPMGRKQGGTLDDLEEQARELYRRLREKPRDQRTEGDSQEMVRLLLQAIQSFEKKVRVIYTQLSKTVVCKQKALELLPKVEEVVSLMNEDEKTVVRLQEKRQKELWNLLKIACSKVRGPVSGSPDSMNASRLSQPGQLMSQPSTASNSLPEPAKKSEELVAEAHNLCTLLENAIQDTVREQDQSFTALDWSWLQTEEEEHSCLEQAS
Put plainly: DELFIA IKKβ kinase assay (apparent Ki, Cheng-Prusoff). The following applies: non-italicised figure: DELFIA assay. The assay is classed as biochemical. In a few lines: as §1

For the compound `Nc1cc(-c2cc(-c3ccc(CN4CCOCC4)cc3)c3[nH]nc(N)c3c2)ccn1` [Example 122, 5-(2-Aminopyridin-4-yl)-7-(4-(morpholinomethyl)phenyl)-1H-indazol-3-amine], the Ki in assay [1] came to 52 nM; in assay [2] it was 1260 nM.
The like results for `CC(C)(C)c1ccc(-c2cc(-c3ccnc(N)c3)cc3c(N)n[nH]c23)cc1` [Example 123, 5-(2-Aminopyridin-4-yl)-7-(4-(tert-butyl)phenyl)-1H-indazol-3-amine] were, in that order, 160 nM and 1500 nM.
Turning to `Nc1cc(-c2cc(-c3ccccc3Cl)c3[nH]nc(N)c3c2)ccn1` [Example 124, 5-(2-Aminopyridin-4-yl)-7-(2-chlorophenyl)-1H-indazol-3-amine], the Ki in assay [1] came to 224 nM; in assay [2], 1760 nM.
Consider `Nc1cc(-c2cc(-c3ccccc3CO)c3[nH]nc(N)c3c2)ccn1` [Example 125], for which the Ki turned out to be 183 nM in assay [1] and 796 nM in assay [2].
The like results for `Cc1cc(S(N)(=O)=O)ccc1-c1cc(-c2ccnc(N)c2)cc2c(N)n[nH]c12` [Example 126, 4-(3-Amino-5-(2-aminopyridin-4-yl)-1H-indazol-7-yl)-3-methylbenzenesulfonamide] were, in that order, 571 nM and 5030 nM.
On to `Nc1cc(-c2cc(-c3cccnc3)c3[nH]nc(N)c3c2)ccn1` [Example 127], for which the Ki in assay [1] turned out to be 114 nM; in assay [2], 1680 nM.
`Nc1cc(-c2cc(-c3ccncc3)c3[nH]nc(N)c3c2)ccn1` [Example 128, 5-(2-Aminopyridin-4-yl)-7-(pyridin-4-yl)-1H-indazol-3-amine]: the Ki in assay [1] stood at 35 nM; in assay [2] it was 1300 nM.
The corresponding values for `Nc1cc(-c2cc(-c3ccsc3)c3[nH]nc(N)c3c2)ccn1` [Example 130, 5-(2-Aminopyridin-4-yl)-7-(thiophen-3-yl)-1H-indazol-3-amine] are 43 nM and 612 nM.
The corresponding values for `Nc1cc(-c2cc(-c3cccs3)c3[nH]nc(N)c3c2)ccn1` [Example 131, 5-(2-Aminopyridin-4-yl)-7-(thiophen-2-yl)-1H-indazol-3-amine] are 21 nM and 224 nM.
On to `Nc1cc(-c2cc(-c3cncs3)c3[nH]nc(N)c3c2)ccn1` [Example 132, 5-(2-Aminopyridin-4-yl)-7-(thiazol-5yl)-1H-indazol-3-amine], for which the Ki in assay [1] came to 26 nM; in assay [2] it was 316 nM.
The corresponding values for `Nc1cc(-c2cc(-c3ccn[nH]3)c3[nH]nc(N)c3c2)ccn1` [Example 133, 5-(2-Aminopyridin-4-yl)-7-(1H-pyrazol-5-yl)-1H-indazol-3-amine] are 46 nM and 412 nM.
On to `CC(C)C#Cc1cc(-c2ccnc(N)c2)cc2c(N)n[nH]c12` [Example 134, 5-(2-Aminopyridin-4-yl)-7-(3-methylbut-1-yn-1-yl)-1H-indazol-3-amine], for which the Ki was determined as 3 nM in assay [1] and 300 nM in assay [2].
The corresponding values for `Nc1cc(-c2cc(C#Cc3ccccc3)c3[nH]nc(N)c3c2)ccn1` [Example 138, 5-(2-Aminopyridin-4-yl)-7-(phenylethynyl)-1H-indazol-3-amine] are 81 nM and 5030 nM.
As to `Nc1cc(-c2cc(C#CCCO)c3[nH]nc(N)c3c2)ccn1` [Example 139, 4-(3-Amino-5-(2-aminopyridin-4-yl)-1H-indazol-7-yl)but-3-yn-1-ol], the Ki is 186 nM in assay [1] and 4610 nM in assay [2].
The like results for `CC1(C#Cc2cc(-c3ccnc(N)c3)cc3c(N)n[nH]c23)COC1` [Example 141, 5-(2-Aminopyridin-4-yl)-7-((3-methyloxetan-3-yl)ethynyl)-1H-indazol-3-amine] were, in that order, 14 nM and 380 nM.
The corresponding values for `Nc1cc(-c2cc(C#CC3CCOCC3)c3[nH]nc(N)c3c2)ccn1` [Example 142, 5-(2-Aminopyridin-4-yl)-7-((tetrahydro-2H-pyran-4-yl)ethynyl)-1H-indazol-3-amine] are 20 nM and 700 nM.
Take `CC(C)(C)CCc1cc(-c2ccnc(N)c2)cc2c(N)n[nH]c12` [Example 144, 5-(2-Aminopyridin-4-yl)-7-(3,3-dimethylbutyl)-1H-indazol-3-amine]: the Ki in assay [1] is 15 nM; in assay [2], 318 nM.
The like results for `CC(C)(C)C#Cc1cc(-c2cc(N)ncc2F)cc2c(N)n[nH]c12` [Example 148, 5-(2-Amino-5-fluoropyridin-4-yl)-7-(3,3-dimethylbut-1-yn-1-yl)-1H-indazol-3-amine] were, in that order, 23 nM and 2330 nM.
On to `CC(C)(C)C#Cc1cc(-c2ccnc(N)c2F)cc2c(N)n[nH]c12` [Example 149, 5-(2-Amino-3-fluoropyridin-4-yl)-7-(3,3-dimethylbut-1-yn-1-yl)-1H-indazol-3-amine], for which the figures for the Ki in assay [1] and in assay [2] were 8 nM and 220 nM, respectively.
The corresponding values for `CC(C)(C)C#Cc1cc(-c2ccnc(NC3CC3)c2)cc2c(N)n[nH]c12` [Example 153, 5-(2-(Cyclopropylamino)pyridine-4-yl)-7-(3,3-dimethylbut-1-yn-1-yl)-1H-indazol-3-amine] are 4 nM and 100 nM.
Consider `CC(C)(C)C#Cc1cc(-c2ccnc(NC3CCC3)c2)cc2c(N)n[nH]c12` [Example 154, 5-(2-(Cyclobutylamino)pyridin-4-yl)-7-(3,3-dimethylbut-1-yn-1-yl)-1H-indazol-3-amine], for which the Ki in assay [1] stood at 120 nM; in assay [2], 1690 nM.
The like results for `CC(C)(C)C#Cc1cc(-c2ccnc(NC3COC3)c2)cc2c(N)n[nH]c12` [Example 155, 7-(3,3-Dimethylbut-1-yn-1-yl)-5-(2-(oxetan-3-ylamino)pyridin-4-yl)-1H-indazol-3-amine] were, in that order, 15 nM and 784 nM.
For the compound `CC(C)(C)C#Cc1cc(-c2ccnc(NCC3CC3)c2)cc2c(N)n[nH]c12` [Example 157, 5-(2-((Cyclopropylmethyl)amino)pyridin-4-yl)-7-(3,3-dimethylbut-1-yn-1-yl)-1H-indazol-3-amine], the values for the Ki in assay [1] and in assay [2] were 141 nM and 2800 nM, respectively.
The corresponding values for `CC(C)(C)C#Cc1cc(-c2ccnc(NCCC#N)c2)cc2c(N)n[nH]c12` [Example 159, 3-((4-(3-Amino-7-(3,3-dimethylbut-1-yn-1-yl)-1H-indazol-5-yl)pyridin-2-yl)amino)propanenitrile] are 22 nM and 1960 nM.
On to `CC(C)(C)C#Cc1cc(-c2ccnc(NCCO)c2)cc2c(N)n[nH]c12` [Example 160, 2-((4-(3-Amino-7-(3,3-dimethylbut-1-yn-1-yl)-1H-indazol-5-yl)pyridin-2-yl)amino)ethan-1-ol], for which the Ki in assay [1] was determined as 8 nM; in assay [2], 1340 nM.
The like results for `CC(C)(C)C#Cc1cc(-c2ccnc(NCCN)c2)cc2c(N)n[nH]c12` [Example 161, N^1-(4-(3-Amino-7-(3,3-dimethylbut-1-yn-1-yl)-1H-indazol-5-yl)pyridin-2-yl)ethane-1,2-diamine] were, in that order, 128 nM and 7610 nM.
For `COCCNc1cc(-c2cc(C#CC(C)(C)C)c3[nH]nc(N)c3c2)ccn1` [Example 162, 7-(3,3-dimethylbut-1-yn-1-yl)-5-(2-((2-methoxyethyl)amino)pyridin-4-yl)-1H-indazol-3-amine], the Ki in assay [1] came out at 35 nM; in assay [2] it was 1110 nM.
In the case of `COCCCNc1cc(-c2cc(C#CC(C)(C)C)c3[nH]nc(N)c3c2)ccn1` [Example 163, 7-(3,3-Dimethylbut-1-yn-1-yl)-5-(2-((3-methoxypropyl)amino)pyridine-4-yl)-1H-indazol-3-amine], the Ki in assay [1] is above 3000 nM; in assay [2], above 30000 nM.
